Species on record: Rattus norvegicus
Assay: DrugMatrix - Regimen: Daily Repeat
Assay type: toxicity, organism-based, Sprague-Dawley
Design: regimen Daily Repeat, gender Male, age 6-8 weeks
Details: in vivo, po, route oral GAVAGE, […]; for ABSOLUTE BASOPHIL / ABSOLUTE EOSINOPHIL / ABSOLUTE LYMPHOCYTE / ABSOLUTE MONOCYTE / ABSOLUTE SEGMENTED NEUTROPHIL / BASOPHIL / EOSINOPHIL / ERYTHROCYTE COUNT / HEMATOCRIT / HEMOGLOBIN / LEUKOCYTE COUNT / LYMPHOCYTE / MEAN CORPUSCULAR HEMOGLOBIN / MEAN CORPUSCULAR HEMOGLOBIN CONCENTRATION / MEAN CORPUSCULAR VOLUME / MONOCYTE / NEUTROPHIL / NUCLEATED RED BLOOD CELLS / PLATELET COUNT: tissue Blood; for ALANINE AMINOTRANSFERASE / ALBUMIN / ALKALINE PHOSPHATASE / ASPARTATE AMINOTRANSFERASE / BLOOD UREA NITROGEN / CARBON DIOXIDE / CHLORIDE / CHOLESTEROL / CREATINE PHOSPHOKINASE / CREATININE / GLUCOSE / LACTATE DEHYDROGENASE / LIPASE / PHOSPHORUS / POTASSIUM / SODIUM / TOTAL BILIRUBIN / TOTAL PROTEIN / URIC ACID: tissue Plasma
[1] = 0 mg/kg, 72 h, dose level Control, time 3 day
[2] = 0 mg/kg, 120 h, dose level Control, time 5 day
[3] = 12 mg/kg, 72 h, dose level Low, time 3 day

Structure (SMILES): COc1ncnc(NS(=O)(=O)c2ccc(N)cc2)c1OC [SULFADOXINE]
- ABSOLUTE BASOPHIL [1]: 0 CELLS/uL
- ABSOLUTE EOSINOPHIL [1]: 41.83 CELLS/uL
- ABSOLUTE LYMPHOCYTE [1]: 8545.5 CELLS/uL
- ABSOLUTE MONOCYTE [1]: 240 CELLS/uL
- ABSOLUTE SEGMENTED NEUTROPHIL [1]: 906 CELLS/uL
- BASOPHIL [1]: 0%
- EOSINOPHIL [1]: 0.33%
- ERYTHROCYTE COUNT [1]: 5.6 x10E6/uL
- HEMATOCRIT [1]: 35.4%
- HEMOGLOBIN [1]: 13.42 G/DL
- LEUKOCYTE COUNT [1]: 9.73 x10E3/uL
- LYMPHOCYTE [1]: 87.83%
- MEAN CORPUSCULAR HEMOGLOBIN [1]: 23.98 pg
- MEAN CORPUSCULAR HEMOGLOBIN CONCENTRATION [1]: 37.92 G/DL
- MEAN CORPUSCULAR VOLUME [1]: 63.3 fL
- MONOCYTE [1]: 2.5%
- NEUTROPHIL [1]: 9.33%
- NUCLEATED RED BLOOD CELLS [1]: 0 /100WBC
- PLATELET COUNT [1]: 1032 x10E3/uL
- ALANINE AMINOTRANSFERASE [1]: 72.83 u/L
- ALBUMIN [1]: 4 G/DL
- ALKALINE PHOSPHATASE [1]: 322.83 u/L
- ASPARTATE AMINOTRANSFERASE [1]: 102.67 u/L
- BLOOD UREA NITROGEN [1]: 12 mg/dL
- CARBON DIOXIDE [1]: 34.33 mmol/L
- CHLORIDE [1]: 97.67 MEQ/L
- CHOLESTEROL [1]: 82.5 mg/dL
- CREATINE PHOSPHOKINASE [1]: 410.33 u/L
- CREATININE [1]: 0.18 mg/dL
- GLUCOSE [1]: 164.5 mg/dL
- LACTATE DEHYDROGENASE [1]: 119.5 u/L
- LIPASE [1]: 11.83 u/L
- PHOSPHORUS [1]: 9.52 mg/dL
- POTASSIUM [1]: 5.56 MEQ/L
- SODIUM [1]: 142.48 MEQ/L
- TOTAL BILIRUBIN [1]: 0.18 mg/dL
- TOTAL PROTEIN [1]: 5.77 G/DL
- URIC ACID [1]: 0.48 mg/dL
- ABSOLUTE BASOPHIL [2]: 0 CELLS/uL
- ABSOLUTE EOSINOPHIL [2]: 0 CELLS/uL
- ABSOLUTE LYMPHOCYTE [2]: 9065 CELLS/uL
- ABSOLUTE MONOCYTE [2]: 341.33 CELLS/uL
- ABSOLUTE SEGMENTED NEUTROPHIL [2]: 527 CELLS/uL
- BASOPHIL [2]: 0%
- EOSINOPHIL [2]: 0%
- ERYTHROCYTE COUNT [2]: 5.25 x10E6/uL
- HEMATOCRIT [2]: 34.08%
- HEMOGLOBIN [2]: 13.5 G/DL
- LEUKOCYTE COUNT [2]: 9.93 x10E3/uL
- LYMPHOCYTE [2]: 91.17%
- MEAN CORPUSCULAR HEMOGLOBIN [2]: 25.7 pg
- MEAN CORPUSCULAR HEMOGLOBIN CONCENTRATION [2]: 39.62 G/DL
- MEAN CORPUSCULAR VOLUME [2]: 64.93 fL
- MONOCYTE [2]: 3.33%
- NEUTROPHIL [2]: 5.5%
- NUCLEATED RED BLOOD CELLS [2]: 0 /100WBC
- PLATELET COUNT [2]: 1077.5 x10E3/uL
- ALANINE AMINOTRANSFERASE [2]: 57.83 u/L
- ALBUMIN [2]: 4.07 G/DL
- ALKALINE PHOSPHATASE [2]: 319.17 u/L
- ASPARTATE AMINOTRANSFERASE [2]: 83.33 u/L
- BLOOD UREA NITROGEN [2]: 13.67 mg/dL
- CARBON DIOXIDE [2]: 30.83 mmol/L
- CHLORIDE [2]: 98.33 MEQ/L
- CHOLESTEROL [2]: 64.83 mg/dL
- CREATINE PHOSPHOKINASE [2]: 263.67 u/L
- CREATININE [2]: 0.2 mg/dL
- GLUCOSE [2]: 182.83 mg/dL
- LACTATE DEHYDROGENASE [2]: 124 u/L
- LIPASE [2]: 10.5 u/L
- PHOSPHORUS [2]: 10 mg/dL
- POTASSIUM [2]: 5.78 MEQ/L
- SODIUM [2]: 142.48 MEQ/L
- TOTAL BILIRUBIN [2]: 0.2 mg/dL
- TOTAL PROTEIN [2]: 6 G/DL
- URIC ACID [2]: 0.7 mg/dL
- ABSOLUTE BASOPHIL [3]: 0 CELLS/uL
- ABSOLUTE EOSINOPHIL [3]: 0 CELLS/uL
- ABSOLUTE LYMPHOCYTE [3]: 9669.67 CELLS/uL
- ABSOLUTE MONOCYTE [3]: 359.33 CELLS/uL
- ABSOLUTE SEGMENTED NEUTROPHIL [3]: 937.67 CELLS/uL
- BASOPHIL [3]: 0%
- EOSINOPHIL [3]: 0%
- ERYTHROCYTE COUNT [3]: 5.36 x10E6/uL
- HEMATOCRIT [3]: 34.67%
- HEMOGLOBIN [3]: 13.5 G/DL
- LEUKOCYTE COUNT [3]: 10.97 x10E3/uL
- LYMPHOCYTE [3]: 88.33%
- MEAN CORPUSCULAR HEMOGLOBIN [3]: 25.23 pg
- MEAN CORPUSCULAR HEMOGLOBIN CONCENTRATION [3]: 38.97 G/DL
- MEAN CORPUSCULAR VOLUME [3]: 64.87 fL
- MONOCYTE [3]: 2.67%
- NEUTROPHIL [3]: 9%
- NUCLEATED RED BLOOD CELLS [3]: 0 /100WBC
- PLATELET COUNT [3]: 1062.67 x10E3/uL
- ALANINE AMINOTRANSFERASE [3]: 67.67 u/L
- ALBUMIN [3]: 4 G/DL
- ALKALINE PHOSPHATASE [3]: 358.33 u/L
- ASPARTATE AMINOTRANSFERASE [3]: 91.33 u/L
- BLOOD UREA NITROGEN [3]: 12.67 mg/dL
- CARBON DIOXIDE [3]: 32.33 mmol/L
- CHLORIDE [3]: 98.33 MEQ/L
- CHOLESTEROL [3]: 76.33 mg/dL
- CREATINE PHOSPHOKINASE [3]: 340.67 u/L
- CREATININE [3]: 0.29 mg/dL
- GLUCOSE [3]: 154.67 mg/dL
- LACTATE DEHYDROGENASE [3]: 166 u/L
- LIPASE [3]: 10.67 u/L
- PHOSPHORUS [3]: 10.17 mg/dL
- POTASSIUM [3]: 5.55 MEQ/L
- SODIUM [3]: 143.6 MEQ/L
- TOTAL BILIRUBIN [3]: 0.23 mg/dL
- TOTAL PROTEIN [3]: 5.77 G/DL
- URIC ACID [3]: 0.33 mg/dL

From ChEMBL document CHEMBL3885881, “DrugMatrix”
